Test results taken from patent publication US20240025862A1, “SUBSTITUTED N-PHENYLURACILS AND SALTS THEREOF, AND USE THEREOF AS HERBICIDAL ACTIVE SUBSTANCES” (Bayer Aktiengesellschaft, priority 2020, published 2024).

Key:
Assay type in all cases: in vivo
[1] = system: Zea mays (ZEAMX); test: Post-emergence crop plant compatibility, greenhouse pot test; conditions: 1.25 g/ha, vs untreated controls
Procedure, shortened: (§1)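 Seeds are sown in sandy loam and grown under controlled greenhouse conditions. At the one-leaf stage (2–3 weeks), foliage is sprayed with the formulated compound in water containing 0.5% additive at 600 l/ha. About 3 weeks later, injury is rated visually in % against untreated plants.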

[2] = system: Triticum aestivum (TRZAS); test: as above; conditions: vs untreated controls
Procedure, shortened: as §1

[3] = system: Oryza sativa (ORYSA); test: Post-emergence crop plant compatibility, greenhouse pot test (also comparative test C); conditions: vs untreated controls
Procedure, shortened: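 Rice and other crops sprayed post-emergence at one-leaf stage (2–3 weeks after sowing) with WP or EC formulations plus 0.5% additive at 600 l/ha water. Visual rating about 3 weeks later versus untreated controls (100% = dead, 0% = like control); suffixes a–c denote different doses.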

[4] = system: Echinochloa crus-galli (ECHCG); test: Post-emergence herbicidal action, greenhouse pot test (also comparative test C)
Procedure, shortened: (§2)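 Greenhouse pot plants in sandy loam were sprayed post-emergence at the one-leaf stage (2–3 weeks after sowing) with WP or EC formulations plus 0.5% additive at 600 l/ha water. Activity was rated visually after about 3 weeks versus untreated controls (100% = dead, 0% = like control); rates were 20 g/ha or less, and 5 g/ha or less in the comparative test.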

[5] = system: Setaria viridis (SETVI); test: as above; conditions: for Post-emergence action against SETVI: 20 g/ha
Procedure, shortened: as §2

[6] = system: Matricaria inodora (MATIN); test: as above
Procedure, shortened: as §2

[7] = system: Alopecurus myosuroides (ALOMY); test: as above; conditions: rated visually after about 3 weeks vs untreated controls, 100% = plants have died
Procedure, shortened: as §2

[8] = system: Lolium rigidum (LOLRI); test: Post-emergence herbicidal action, greenhouse pot test; conditions: dosage 20 g/ha
Procedure, shortened: (§3)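 Greenhouse-grown weeds in sandy loam were sprayed post-emergence at the one-leaf stage, 2–3 weeks after sowing. Compounds were formulated as WP or EC in water with 0.5% additive at 600 l/ha, at rates of 20 g/ha or less. Visual rating after about 3 weeks used a scale from 0% (like untreated control) to 100% (plants dead).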

[9] = system: Veronica persica (VERPE); test: as above
Procedure, shortened: as §3

[10] = system: Polygonum convolvulus (POLCO); test: as above
Procedure, shortened: as §3

[11] = system: Amaranthus retroflexus (AMARE); test: as above; conditions: rated visually after about 3 weeks vs untreated controls, 100% = plants have died
Procedure, shortened: as §3

[12] = system: Pharbitis purpurea (PHBPU); test: as above
Procedure, shortened: as §3

[13] = system: Viola tricolor (VIOTR); test: as above
Procedure, shortened: as §3

[14] = system: Avena fatua (AVEFA); test: as above; conditions: 20 g/ha, rated visually after about 3 weeks vs untreated controls, 100% = plants have died
Procedure, shortened: as §3

[15] = system: Abutilon theophrasti (ABUTH); test: as above; conditions: rated visually after about 3 weeks vs untreated controls, 100% = plants have died
Procedure, shortened: as §3

| SMILES | Post-emergence action against ZEAMX (crop plant compatibility) [1] | Post-emergence action against ORYSA (crop plant compatibility) ([3]; 1.25 g/ha) | Post-emergence action against ECHCG in % ([4]; dosage 5 g/ha) | Post-emergence action against ECHCG in % ([4]; dosage 20 g/ha) | Post-emergence action against SETVI [5] | Post-emergence action against SETVI in % ([5]; dosage 1.25 g/ha) | Post-emergence action against SETVI in % ([5]; dosage 5 g/ha) | Post-emergence action against MATIN in % ([6]; dosage 5 g/ha) | Post-emergence action against MATIN in % ([6]; dosage 20 g/ha) | Post-emergence action at 20 g/ha against ALOMY in % [7] | Post-emergence action against LOLRI in % [8] | Post-emergence action against VERPE ([9]; 1.25 g/ha) | Post-emergence action against VERPE ([9]; 5 g/ha) | Post-emergence action against VERPE ([9]; 20 g/ha) | Post-emergence action against POLCO in % ([10]; dosage 20 g/ha) | Post-emergence action at 1.25 g/ha against AMARE in % [11] | Post-emergence action at 5 g/ha against AMARE in % [11] | Post-emergence action at 20 g/ha against AMARE in % [11] | Post-emergence action against PHBPU in % ([12]; dosage 1.25 g/ha) | Post-emergence action against PHBPU in % ([12]; dosage 5 g/ha) | other results |
| --- | --- | --- | --- | --- | --- | --- | --- | --- | --- | --- | --- | --- | --- | --- | --- | --- | --- | --- | --- | --- | --- |
| CCOCCOC(=O)COc1ccccc1Oc1cc(-n2c(=O)cc(C(F)(F)F)n(C)c2=O)c(F)cc1Cl [I.7-2] | 0% | 0% | 100% | 100% | 100% | 100% | 100% | 80% | 100% | 100% | 80% | 80% | 100% | 100% | 100% | 100% | 100% | 100% | 100% | 100% | Post-emergence action against TRZAS (crop plant compatibility) ([2]; 1.25 g/ha): 20%; Post-emergence action against TRZAS (crop plant compatibility) ([2]; 5 g/ha): 20%; Post-emergence action against MATIN in % ([6]; dosage 1.25 g/ha): 80%; Post-emergence action at 5 g/ha against ALOMY in % [7]: 80%; Post-emergence action against PHBPU in % ([12]; dosage 20 g/ha): 100%; Post-emergence action against VIOTR ([13]; 1.25 g/ha): 100%; Post-emergence action against VIOTR ([13]; 5 g/ha): 100%; Post-emergence action against VIOTR ([13]; 20 g/ha): 100%; Post-emergence action at 20 g/ha against AVEFA in % [14]: 90%; Post-emergence action at 1.25 g/ha against ABUTH in % [15]: 100%; Post-emergence action at 5 g/ha against ABUTH in % [15]: 100%; Post-emergence action at 20 g/ha against ABUTH in % [15]: 100% |
| Cn1c(C(F)(F)F)cc(=O)n(-c2cc(Oc3ccccc3OCC(=O)OCC3CCOC3)c(Cl)cc2F)c1=O (stereo not drawn) [I.7-72] | 20% | 0% | 100% | 100% | 100% | 100% | 100% | 100% | 100% | 100% | 80% | 90% | 100% | 100% | 100% | 100% | 100% | 100% | 100% | 100% | Post-emergence action against TRZAS (crop plant compatibility) ([2]; 1.25 g/ha): 10%; Post-emergence action at 1.25 g/ha against ECHCG in % ([4]; 1.25 g/ha, rated visually after about 3 weeks vs untreated controls, 100% = plants have died): 80%; Post-emergence action against POLCO in % ([10]; dosage 1.25 g/ha): 80%; Post-emergence action against POLCO in % ([10]; dosage 5 g/ha): 100%; Post-emergence action against PHBPU in % ([12]; dosage 20 g/ha): 100%; Post-emergence action against VIOTR ([13]; 1.25 g/ha): 100%; Post-emergence action against VIOTR ([13]; 5 g/ha): 100%; Post-emergence action against VIOTR ([13]; 20 g/ha): 100%; Post-emergence action at 20 g/ha against AVEFA in % [14]: 100%; Post-emergence action at 1.25 g/ha against ABUTH in % [15]: 100%; Post-emergence action at 5 g/ha against ABUTH in % [15]: 100%; Post-emergence action at 20 g/ha against ABUTH in % [15]: 100% |
| Cn1c(C(F)(F)F)cc(=O)n(-c2cc(Oc3ccccc3OCC(=O)OCCC#N)c(Cl)cc2F)c1=O [I.7-179] | 0% | 0% | 100% | 100% | 100% | 100% | 100% | 100% | 100% | 100% | 100% | 100% | 100% | 100% | 100% | 100% | 100% | 100% | 100% | 100% | Post-emergence action against TRZAS (crop plant compatibility) ([2]; 1.25 g/ha): 0%; Post-emergence action against TRZAS (crop plant compatibility) ([2]; 5 g/ha): 0%; Post-emergence action against MATIN in % ([6]; dosage 1.25 g/ha): 80%; Post-emergence action against POLCO in % ([10]; dosage 5 g/ha): 100%; Post-emergence action against PHBPU in % ([12]; dosage 20 g/ha): 100%; Post-emergence action against VIOTR ([13]; 1.25 g/ha): 100%; Post-emergence action against VIOTR ([13]; 5 g/ha): 100%; Post-emergence action against VIOTR ([13]; 20 g/ha): 100%; Post-emergence action at 20 g/ha against AVEFA in % [14]: 80%; Post-emergence action at 1.25 g/ha against ABUTH in % [15]: 100%; Post-emergence action at 5 g/ha against ABUTH in % [15]: 100%; Post-emergence action at 20 g/ha against ABUTH in % [15]: 100% |
| CCOCCOC(=O)COc1ccccc1Oc1cc(-n2c(=O)cc(C(F)(F)F)n(C)c2=O)c(F)cc1Br [I.8-2] | 20% | 0% | 100% | 100% | 100% | 100% | 100% | 100% | 100% | 100% | 90% | 100% | 100% | 100% | 100% | 100% | 100% | 100% | 100% | 100% | Post-emergence action against ORYSA (crop plant compatibility) ([3]; 5 g/ha): 0%; Post-emergence action against MATIN in % ([6]; dosage 1.25 g/ha): 100%; Post-emergence action at 1.25 g/ha against ALOMY in % ([7]; 1.25 g/ha): 80%; Post-emergence action at 5 g/ha against ALOMY in % [7]: 100%; Post-emergence action against POLCO in % ([10]; dosage 5 g/ha): 100%; Post-emergence action against PHBPU in % ([12]; dosage 20 g/ha): 100%; Post-emergence action against VIOTR ([13]; 1.25 g/ha): 100%; Post-emergence action against VIOTR ([13]; 5 g/ha): 100%; Post-emergence action against VIOTR ([13]; 20 g/ha): 100%; Post-emergence action at 20 g/ha against AVEFA in % [14]: 100%; Post-emergence action at 1.25 g/ha against ABUTH in % [15]: 100%; Post-emergence action at 5 g/ha against ABUTH in % [15]: 100%; Post-emergence action at 20 g/ha against ABUTH in % [15]: 100% |
